In patent publication US20260256792A1, “TREATMENT OF CHRONIC SPONTANEOUS URTICARIA BY ADMINISTERING (R)-2-[3-[4-AMINO-3-(2-FLUORO-4-PHENOXY-PHENYL)PYRAZOLO[3,4-D]PYRIMIDIN-1-YL]PIPERIDINE-1-CARBONYL]-4-METHYL-4-[4-(OXETAN-3-YL)PIPERAZIN-1-YL]PENT-2-ENENITRILE” (priority 2023, published 2026):

Test system: IgG anti-FcεRI
Assay: Phase 2 CSU study: serum IgG anti-FcεRI ELISA
Assay type: in vivo, human
Conditions: for IgG anti-FcεRI (arbitrary unit) Median Percent Change from Baseline: Baseline to Week 12
Text: Blood samples were also collected through Week 12 to evaluate the change in baseline in various biomarkers, including sMRGPRX2, IgG anti-TPO, IgG anti-FCεRI, IgG anti-IgE, and IL-31.
Collection of biological samples for other biomarker research was also part of this study. The following samples for biomarker research were required and were to be collected from all participants in this study: • Serum and plasma samples for soluble biomarkers and cellular tests. Analytes included IgG anti-IgE, IgG anti-FcεRI, IgG anti-TPO, IgE anti-TPO, IL-31, and sMRGPRX2. • Blood samples for immune cell phenotyping, including measurement of eosinophil levels • Blood samples for BTK occupancy in peripheral blood mononuclear cells (PBMCs) at selected sites
For each patient, serum samples were to be collected on each of four visits (Visits 2, 4, 6, and end of study/follow up).
If dilutions were to be prepared, the same dilutions were to be prepared twice from each sample. These were to be measured on different plates. Each plate was to include a standard curve. Samples were to be measured twice for all biomarkers except for sMRGPRX2. Mean measurement values were to be calculated, and the concentration of the biomarker was to be calculated using GraphPad Prism 9 software (4-PL model).
For the IgG anti-FcεRI ELISA, MaxiSorp plates were coated overnight with […] recombinant human FcεRIα and blocked with 10% protein-free blocking buffer diluted in assay buffer. Following the addition of serum samples (1:100 in assay buffer) or the hIgG anti-FcεRI standard (1:2 serial dilution in assay buffer), the plates were incubated at room temperature. Next, the anti-IgG-HRP detection antibody was added to all samples. Development was performed using ECL-prime solution and chemiluminescent signal intensity was measured on the Victor5 multimode plate reader.
Assay data ranges are described below. • sMRGPRX2: 0.1 ng/mL-10 ng/mL • IgG anti-FCεRI: 0-10000 arbitrary units (AU) • IgG anti-TPO: 0-3000 international units (IU) • IgE anti-TPO: 0-500 AU • IgG anti-IgE: 0-100000 AU • IL-31: 0.1 ng/mL-20 ng/mL

Structure (SMILES): CC(C)(C=C(C#N)C(=O)N1CCC[C@@H](n2nc(-c3ccc(Oc4ccccc4)cc3F)c3c(N)ncnc32)C1)N1CCN(C2COC2)CC1 [rilzabrutinib, (R)-2-[3-[4-amino-3-(2-fluoro-4-phenoxy-phenyl)pyrazolo[3,4-d]pyrimidin-1-yl]piperidine-1-carbonyl]-4-methyl-4-[4-(oxetan-3-yl)piperazin-1-yl]pent-2-enenitrile]
- reduction from baseline for IgG anti-FCFRI (400 mg TID, Week 12): 38.7%
- IgG anti-FcεRI (arbitrary unit) Median Percent Change from Baseline (400 mg BID): −39.0%
- IgG anti-FcεRI (arbitrary unit) Median Percent Change from Baseline (400 mg QPM): −20.4%
- IgG anti-FcεRI (arbitrary unit) Median Percent Change from Baseline (400 mg TID): −38.7%
